Results from patent publication US11046716B2, “Beta-lactamase inhibitors” (priority 2015, dated 2021).

What was measured:
SHV-5 = target: T1, SHV-5 (Klebsiella pneumoniae, UniProt P0A3M1); assay: β-lactamase enzyme inhibition assay, SHV-5 (cefotaxime substrate); assay type: biochemical
T1 construct: made in house; host or cells: E. coli BL21(DE3)
Procedure, shortened: (§1)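 Native untagged enzymes expressed in E. coli BL21(DE3), purified by cation exchange and gel filtration. Inhibitor preincubated with enzyme 15 min at 37 °C; hydrolysis followed by absorbance: imipenem at 300 nm for KPC-2, cefotaxime at 260 nm for SHV-5. IC50 as concentration halving initial hydrolysis rate versus inhibitor-free wells.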

KPC-2 = target: T2, KPC-2 (Klebsiella pneumoniae, UniProt Q9F663); assay: β-lactamase enzyme inhibition assay, KPC-2 (imipenem substrate); assay type: biochemical; conditions: Class A; imipenem substrate, 300 nm; read-out: KPC-2
T2 construct: made in house; host or cells: E. coli BL21(DE3)
T2 sequence (Q9F663 25-293, looked up): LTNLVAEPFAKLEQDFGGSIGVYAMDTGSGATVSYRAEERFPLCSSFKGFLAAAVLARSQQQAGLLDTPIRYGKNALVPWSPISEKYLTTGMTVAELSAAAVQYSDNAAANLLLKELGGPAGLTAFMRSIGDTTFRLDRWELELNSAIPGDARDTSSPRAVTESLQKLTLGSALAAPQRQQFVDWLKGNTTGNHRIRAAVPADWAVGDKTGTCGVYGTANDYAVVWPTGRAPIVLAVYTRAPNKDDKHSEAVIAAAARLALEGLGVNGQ
Procedure, shortened: as §1

VIM-2 = target: T3, VIM-2 (Escherichia coli, UniProt Q5U7L7); assay: β-lactamase enzyme inhibition assay, VIM-2 (nitrocefin substrate); assay type: biochemical; conditions: Class B; nitrocefin substrate, 486 nm; read-out: VIM-2
T3 construct: made in house; host or cells: E. coli BL21(DE3)
Procedure, shortened: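 IC50 reflects the inhibitor concentration cutting the initial nitrocefin hydrolysis rate by half, compared with control wells lacking inhibitor. Substrate was used at 100 μM final after a 15 min, 37 °C enzyme–inhibitor preincubation.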

AmpC = target: T4, AmpC (Enterobacter cloacae, UniProt P05364); assay: β-lactamase enzyme inhibition assay, p99 AmpC (nitrocefin substrate); assay type: biochemical
T4 construct: made in house; host or cells: E. coli BL21(DE3)
T4 sequence (P05364 21-381): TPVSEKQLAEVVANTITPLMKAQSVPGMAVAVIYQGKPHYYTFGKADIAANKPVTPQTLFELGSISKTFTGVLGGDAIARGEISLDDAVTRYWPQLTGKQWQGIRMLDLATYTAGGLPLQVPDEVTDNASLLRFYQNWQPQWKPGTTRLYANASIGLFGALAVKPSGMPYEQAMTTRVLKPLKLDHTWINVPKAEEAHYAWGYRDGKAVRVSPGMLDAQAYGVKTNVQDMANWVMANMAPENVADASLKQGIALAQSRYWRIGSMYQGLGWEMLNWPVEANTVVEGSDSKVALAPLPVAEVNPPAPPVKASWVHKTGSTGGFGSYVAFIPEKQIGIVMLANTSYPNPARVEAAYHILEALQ
Procedure, shortened: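 Native untagged enzymes expressed in E. coli BL21(DE3), purified by cation exchange and gel filtration. Inhibitor preincubated with enzyme 15 min at 37 °C; hydrolysis followed by absorbance. IC50 as concentration halving initial hydrolysis rate versus inhibitor-free wells.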

OXA-48 = OXA-48 (UniProt Q6XEC0); assay: β-lactamase enzyme inhibition assay, Class D oxacillinase; assay type: biochemical; conditions: read-out: OXA-48
[1] = system: E. coli expressing the Class A Extended Spectrum Beta-Lactamase (ESBL) CTX-M-15; assay: Broth microdilution MIC assay with ceftazidime, E. coli CTX-M-15; assay type: cell-based; conditions: Fixed CAZ (ceftazidime) 4 μg/mL; E. coli ESBL4 CTX-M-15
Procedure, shortened: (§2)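 Potentiation format: the β-lactam was held at 4 μg/ml while the test compound was serially diluted, and growth was scored visually after overnight (16-20 h) incubation at 37° C.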

[2] = system: E. cloacae expressing the Class C P99; assay: Broth microdilution MIC assay with ceftazidime, E. cloacae P99; assay type: cell-based; conditions: Fixed CAZ (ceftazidime) 4 μg/mL; E. cl. 144200 p99 AmpC
Procedure, shortened: as §2

[3] = system: K. pneumoniae expressing the Class A carbapenemase KPC-2; assay: Broth microdilution MIC assay with meropenem, K. pneumoniae KPC-2; assay type: cell-based; conditions: Fixed Mero (meropenem) 4 μg/mL; K. p. 156319 KPC-3
Procedure, shortened: as §2

[4] = system: P. aeruginosa expressing the Class B carbapenemase VIM-2; assay: Broth microdilution MIC assay with meropenem, P. aeruginosa VIM-2; assay type: cell-based; conditions: Fixed Mero (meropenem) 4 μg/mL; P. aerug. 2775 VIM-2
Procedure, shortened: as §2

[5] = system: K. pneumoniae expressing the class A carbapenemase KPC-2 and the class B carbapenemase VIM-4; assay: Broth microdilution MIC assay with meropenem, K. pneumoniae KPC-2 and VIM-4; assay type: cell-based; conditions: Fixed Mero (meropenem) 4 μg/mL; K. p. A-1797 KPC-2 VIM-4
Procedure, shortened: as §2

[6] = system: K. pneumoniae producing the Class D carbapenemase OXA-48; assay: Broth microdilution MIC assay with meropenem, K. pneumoniae OXA-48; assay type: cell-based; conditions: Fixed Mero (meropenem) 4 μg/mL; K. p. 11978 OXA-48
Procedure, shortened: as §2

T1 sequence (P0A3M1 22-286): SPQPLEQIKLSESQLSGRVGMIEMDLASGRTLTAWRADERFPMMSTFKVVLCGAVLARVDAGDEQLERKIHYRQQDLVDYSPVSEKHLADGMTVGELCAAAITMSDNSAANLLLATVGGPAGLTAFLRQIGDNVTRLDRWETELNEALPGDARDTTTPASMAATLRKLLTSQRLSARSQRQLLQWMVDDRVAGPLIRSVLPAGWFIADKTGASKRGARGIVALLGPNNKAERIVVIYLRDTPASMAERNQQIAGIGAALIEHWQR

Structure (SMILES) | IC50 (SHV-5) [nM] | IC50 (KPC-2) [nM] | IC50 (VIM-2) [nM] | IC50 (AmpC) [nM] | IC50 (OXA-48) [nM] | MIC (μg/mL) of Exemplary Compounds in presence of fixed β-lactams: E. coli ESBL4 CTX-M-15 [1] | MIC (μg/mL) of Exemplary Compounds in presence of fixed β-lactams: E. cl. 144200 p99 AmpC [2] | MIC (μg/mL) of Exemplary Compounds in presence of fixed β-lactams: K. p. 156319 KPC-3 [3] | MIC (μg/mL) of Exemplary Compounds in presence of fixed β-lactams: P. aerug. 2775 VIM-2 [4] | MIC (μg/mL) of Exemplary Compounds in presence of fixed β-lactams: K. p. A-1797 KPC-2 VIM-4 [5] | MIC (μg/mL) of Exemplary Compounds in presence of fixed β-lactams: K. p. 11978 OXA-48 [6]
O=C(Cn1nnc(CN2CCOCC2)c1CN1CCOCC1)N[C@H]1Cc2cccc(C(=O)O)c2OB1O [Example 32, (R)-3-(2-(4,5-bis(morpholinomethyl)-1H-1,2,3-triazol-1-yl)acetamido)-2-hydroxy-3,4-dihydro-2H-benzo[e][1,2]oxaborinine-8-carboxylic acid] | < 100 | < 100 | 100 to 1000 | < 100 | 100 to 1000 | B (B represents an MIC between 1 and 16 μg/mL inclusive) | A (A represents an MIC>16 μg/mL) | B (B represents an MIC between 1 and 16 μg/mL inclusive) | B (B represents an MIC between 1 and 16 μg/mL inclusive) | A (A represents an MIC>16 μg/mL) | A (A represents an MIC>16 μg/mL)
CC(C)(C(=O)N[C@H]1Cc2cccc(C(=O)O)c2OB1O)n1cc(CN)nn1 [Example 33, (R)-3-(2-(4-(aminomethyl)-1H-1,2,3-triazol-1-yl)-2-methylpropanamido)-2-hydroxy-3,4-dihydro-2H-benzo[e][1,2]oxaborinine-8-carboxylic acid] | < 100 | < 100 | < 100 | < 100 | < 100 | C (C represents an MIC of <1 μg/mL) | C (C represents an MIC of <1 μg/mL) | B (B represents an MIC between 1 and 16 μg/mL inclusive) | C (C represents an MIC of <1 μg/mL) | C (C represents an MIC of <1 μg/mL) | B (B represents an MIC between 1 and 16 μg/mL inclusive)
NCCOCc1cn(CC(=O)N[C@H]2Cc3cccc(C(=O)O)c3OB2O)nn1 [Example 34, (R)-3-(2-(4-((2-aminoethoxy)methyl)-1H-1,2,3-triazol-1-yl)acetamido)-2-hydroxy-3,4-dihydro-2H-benzo[e][1,2]oxaborinine-8-carboxylic acid] | < 100 | < 100 | 100 to 1000 | < 100 | 1000 to 10000 | C (C represents an MIC of <1 μg/mL) | C (C represents an MIC of <1 μg/mL) | B (B represents an MIC between 1 and 16 μg/mL inclusive) | C (C represents an MIC of <1 μg/mL) | B (B represents an MIC between 1 and 16 μg/mL inclusive) | B (B represents an MIC between 1 and 16 μg/mL inclusive)
NC(=O)c1ncn(CC(=O)N[C@H]2Cc3cccc(C(=O)O)c3OB2O)n1 [Example 35, (R)-3-(2-(3-carbamoyl-1H-1,2,4-triazol-1-yl)acetamido)-2-hydroxy-3,4-dihydro-2H-benzo[e][1,2]oxaborinine-8-carboxylic acid] | < 100 | < 100 | 1000 to 10000 | < 100 | 1000 to 10000 | C (C represents an MIC of <1 μg/mL) | C (C represents an MIC of <1 μg/mL) | B (B represents an MIC between 1 and 16 μg/mL inclusive) | B (B represents an MIC between 1 and 16 μg/mL inclusive) | A (A represents an MIC>16 μg/mL) | B (B represents an MIC between 1 and 16 μg/mL inclusive)
Nc1n[nH]c2ncc(-c3cn(CC(=O)N[C@H]4Cc5cccc(C(=O)O)c5OB4O)nn3)cc12 [Example 36] | < 100 | < 100 | 1000 to 10000 | < 100 | 100 to 1000 | C (C represents an MIC of <1 μg/mL) | C (C represents an MIC of <1 μg/mL) | B (B represents an MIC between 1 and 16 μg/mL inclusive) | B (B represents an MIC between 1 and 16 μg/mL inclusive) | A (A represents an MIC>16 μg/mL) | B (B represents an MIC between 1 and 16 μg/mL inclusive)
NCCNC(=O)c1cn(CC(=O)N[C@H]2Cc3cccc(C(=O)O)c3OB2O)nn1 [Example 37, (R)-3-(2-(4-((2-aminoethyl)carbamoyl)-1H-1,2,3-triazol-1-yl)acetamido)-2-hydroxy-3,4-dihydro-2H-benzo[e][1,2]oxaborinine-8-carboxylic acid] | < 100 | < 100 | < 100 | < 100 | 1000 to 10000 | C (C represents an MIC of <1 μg/mL) | C (C represents an MIC of <1 μg/mL) | B (B represents an MIC between 1 and 16 μg/mL inclusive) | C (C represents an MIC of <1 μg/mL) | C (C represents an MIC of <1 μg/mL) | B (B represents an MIC between 1 and 16 μg/mL inclusive)
CN(C)Cc1nnn(CC(=O)N[C@H]2Cc3cccc(C(=O)O)c3OB2O)c1CN(C)C [Example 38, (R)-3-(2-(4,5-bis((dimethylamino)methyl)-1H-1,2,3-triazol-1-yl)acetamido)-2-hydroxy-3,4-dihydro-2H-benzo[e][1,2]oxaborinine-8-carboxylic acid] | 100 to 1000 | < 100 | 100 to 1000 | < 100 | 100 to 1000 | B (B represents an MIC between 1 and 16 μg/mL inclusive) | C (C represents an MIC of <1 μg/mL) | B (B represents an MIC between 1 and 16 μg/mL inclusive) | B (B represents an MIC between 1 and 16 μg/mL inclusive) | B (B represents an MIC between 1 and 16 μg/mL inclusive) | B (B represents an MIC between 1 and 16 μg/mL inclusive)
CC(C)(C(=O)N[C@H]1Cc2cccc(C(=O)O)c2OB1O)n1cc(CNC(=N)N)nn1 [Example 39, (R)-3-(2-(4-(guanidinomethyl)-1H-1,2,3-triazol-1-yl)-2-methylpropanamido)-2-hydroxy-3,4-dihydro-2H-benzo[e][1,2]oxaborinine-8-carboxylic acid] | < 100 | < 100 | < 100 | < 100 | 100 to 1000 | C (C represents an MIC of <1 μg/mL) | C (C represents an MIC of <1 μg/mL) | B (B represents an MIC between 1 and 16 μg/mL inclusive) | C (C represents an MIC of <1 μg/mL) | B (B represents an MIC between 1 and 16 μg/mL inclusive) | B (B represents an MIC between 1 and 16 μg/mL inclusive)
